These results are taken from article PMC13047053, “Crystal structure of human INPP5K with an allosteric inhibitor reveals the structural basis for species specific potency” (Scientific Reports, 2026).

One assay has as its target T1, hamster INPP5K (Cricetulus griseus, UniProt G3HTF6).
T1 construct: hamster INPP5K (aa 1–453, UniProt ID: G3HTF6); FLAG (N); made in house; host or cells: Expi293 cells (pcDNA3.4, transient)
T1 sequence (G3HTF6 1-451): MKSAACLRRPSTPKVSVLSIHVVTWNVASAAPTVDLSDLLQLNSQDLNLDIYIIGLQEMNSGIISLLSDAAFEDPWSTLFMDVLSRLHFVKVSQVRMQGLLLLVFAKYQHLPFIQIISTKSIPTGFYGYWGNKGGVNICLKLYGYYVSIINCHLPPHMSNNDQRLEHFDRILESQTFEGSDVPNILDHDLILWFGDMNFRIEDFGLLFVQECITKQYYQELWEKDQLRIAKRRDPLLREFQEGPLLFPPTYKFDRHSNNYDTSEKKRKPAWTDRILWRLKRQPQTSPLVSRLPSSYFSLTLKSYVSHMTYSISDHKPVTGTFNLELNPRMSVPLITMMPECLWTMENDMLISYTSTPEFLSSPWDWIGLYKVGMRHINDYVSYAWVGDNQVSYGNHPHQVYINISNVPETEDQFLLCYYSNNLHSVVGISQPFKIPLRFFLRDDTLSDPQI
The assay is described as follows: Inorganic phosphate detection assay for phosphatase inhibition. It counts as biochemical. The settings on record: 20 µM diC8-PI(3,4,5)P3, 20 min. An excerpt:
(§1) The protein purification is described in detail elsewhere. Briefly, full-length human INPP5K (amino acids 1–448, UniProt ID: Q9BT40), rat INPP5K (aa 1–446, UniProt ID: Q9R0B6), mouse INPP5K (aa 1–468, UniProt ID: Q8C5L6), hamster INPP5K (aa 1–453, UniProt ID: G3HTF6), guinea pig INPP5K (aa 1–473, UniProt ID: H0V8T7) containing an N-terminal FLAG-tag, full-length human SHIP2 (aa 1–1 258) containing a C-terminal FLAG-tag, and full-length human PIPP (amino acids 1–1 006) containing an N-terminal His8-tag were all cloned into the pcDNA3.4 expression vector and transiently expressed in Expi293 cells (Thermo Fisher Scientific). The PH domain of human TAPP1 (amino acids 180–404) containing an N-terminal GST-tag was expressed in a pGEX6P1 expression vector (GE Healthcare) in E. coli strain BL21 ((Merck KGaA, Darmstadt, Germany)), following IPTG induction at 37 °C for 5 h. All the FLAG-tagged INPP5Ks and hSHIP2 were purified using affinity columns containing DDDDK-tagged protein purification gel (MBL, Medical & Biological Laboratories Co., Ltd., Tokyo, Japan), followed by size-exclusion chromatography with Superdex 200 columns (GE Healthcare). His8-tagged hPIPP was purified using Ni–NTA Superflow (Qiagen) and Superdex 200 columns. The GST-tagged hTAPP1 domain was purified using a Glutathione Sepharose 4B (GE Healthcare) and Superdex 200 columns. The purity of the protein obtained was evaluated using SDS-PAGE.
(§2) The release of inorganic phosphate was measured using a PiPer Phosphate Assay Kit (Thermo Fisher Scientific), according to the manufacturer’s instructions, but with some modifications. Enzyme reactions were performed in a final volume of 10 µL per well in a 384-well nonbinding black plates (Greiner Bio-One International, GmbH, Kremsmünster, Austria). The reaction mixtures containing 20 µM diC8-PI(3,4,5)P₃ and each enzyme (human INPP5K, mouse INPP5K, rat INPP5K, hamster INPP5K, guinea pig INPP5K, human SHIP2, or human PIPP) in reaction buffer (50 mM Tris–HCl pH 7.0, 150 mM NaCl, 7.5 mM MgCl₂, 0.03% Igepal CA-630, 0.03% gelatin), with or without various concentrations of inhibitor, were incubated for 20 min at room temperature. The reactions were then stopped and detection reactions were initiated by adding 5 µL of detection mix 1 (60 mM EDTA, 12 U/mL maltose phosphorylase, and 0.6 mM maltose in 100 mM Tris–HCl pH 8.0). After incubation for 60 min at room temperature, 5 µL of detection mix 2 (8 U/mL glucose oxidase, 0.8 U/mL HRP, and 100 µM Amplex Red in 100 mM Tris–HCl pH 8.0) was added, and the mixture was incubated for a further 30 min at room temperature in the dark. The fluorescence generated was measured using an Envision plate reader at 531/590 nm (excitation/emission), and the percentage inhibition was calculated as described above.

The target in a further assay is T2, human PIPP (Homo sapiens, UniProt Q15735).
T2 construct: full-length human PIPP (amino acids 1–1 006) containing an N-terminal His8-tag; His8 (N); made in house; host or cells: Expi293 cells (pcDNA3.4, transient)
T2 sequence (Q15735 1-1006): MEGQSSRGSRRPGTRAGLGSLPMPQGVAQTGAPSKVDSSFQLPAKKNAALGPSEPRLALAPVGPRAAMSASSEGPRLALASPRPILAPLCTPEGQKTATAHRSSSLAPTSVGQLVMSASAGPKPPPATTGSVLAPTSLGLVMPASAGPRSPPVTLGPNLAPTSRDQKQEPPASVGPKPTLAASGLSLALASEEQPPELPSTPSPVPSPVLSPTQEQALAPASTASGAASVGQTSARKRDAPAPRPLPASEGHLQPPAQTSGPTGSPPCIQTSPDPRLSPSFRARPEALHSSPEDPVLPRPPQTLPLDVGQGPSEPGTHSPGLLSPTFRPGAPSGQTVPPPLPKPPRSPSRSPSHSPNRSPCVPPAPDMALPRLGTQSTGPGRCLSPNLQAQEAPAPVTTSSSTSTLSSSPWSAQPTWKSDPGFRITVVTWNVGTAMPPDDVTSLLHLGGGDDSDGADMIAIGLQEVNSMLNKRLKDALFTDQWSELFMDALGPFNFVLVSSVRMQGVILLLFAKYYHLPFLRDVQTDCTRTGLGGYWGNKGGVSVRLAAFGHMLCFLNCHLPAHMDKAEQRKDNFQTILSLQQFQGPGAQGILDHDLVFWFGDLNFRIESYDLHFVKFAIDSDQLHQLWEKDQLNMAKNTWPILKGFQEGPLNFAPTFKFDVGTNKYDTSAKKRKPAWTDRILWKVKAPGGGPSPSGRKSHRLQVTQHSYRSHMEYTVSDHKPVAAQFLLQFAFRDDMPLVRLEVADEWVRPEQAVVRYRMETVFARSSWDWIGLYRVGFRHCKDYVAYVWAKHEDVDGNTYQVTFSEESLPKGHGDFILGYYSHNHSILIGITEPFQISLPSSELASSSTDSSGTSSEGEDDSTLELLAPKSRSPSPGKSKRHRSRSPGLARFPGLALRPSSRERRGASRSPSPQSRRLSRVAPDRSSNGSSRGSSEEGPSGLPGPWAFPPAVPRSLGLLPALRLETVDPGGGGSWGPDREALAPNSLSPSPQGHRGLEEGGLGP
The description is as above. Format: biochemical. The settings on record: 20 µM diC8-PI(3,4,5)P3, 20 min.
From the text: as §1, §2

The structures appear in SMILES notation.

Consider `CC(C)c1sc(NC(=O)c2ccccc2)c(C(=O)O)c1-c1ccccc1` [CPD-1], for which the results for the half-maximal inhibitory concentration (IC50) on hamster INPP5K and against human PIPP were 8.2 µM and greater than 100 µM, respectively.
